Literature values as cited in patent US11420990B2, “Ruthenium complex containing alkynyl group, method of synthesizing the same and use thereof” (GUANGDONG PHARMACEUTICAL UNIVERSITY, priority 2018, dated 2022).

Tested on: cancer cells
Details: background statement

[Ru+2].c1ccc(-c2ccccn2)nc1.c1ccc(-c2ccccn2)nc1.c1ccc2nc3c4cccnc4c4ncccc4c3nc2c1 [[Ru(bpy)2(dppz)]^2+]
cytotoxicity to cancer cells (in words): insignificant cytotoxicity
